# What was measured:
# [1] = test system: soybean plants (variety S20-G7); assay: Water use (WU) of soybean plants after foliar spray; format: in vivo; details: repeated experiment (Table B2), rate not given
# Procedure: Chemicals were tested for their effect on reducing plant water use (WU) after being applied by foliar sprays onto soybean plants (variety S20-G7)—grown in controlled environment plant growth chambers. All chemicals were applied using an emulsifiable concentrate (EC) formulation that was diluted with water containing additional surfactant (EXTRAVON 1 g/20 L) to the indicated concentrations. Plant WU was assessed by multiple pot weighing processes before and after application of the chemicals at the indicated times (expressed in days after application (DAA)). The WU data before application was used to correct for differences in water use due to non-treatment effects (e.g. due to differences in plant size). The results are expressed compared to negative control treatment (water with EXTRAVON 1 g/20 L).
# Application of the chemicals (0 DAA) takes place approximately between 8 to 9:30 a.m. […] The cumulative total WU (0-2 DAA) is calculated by summing the WU data mentioned above.
# [2] = test system: corn plants (variety NK OCTET); assay: Water use (WU) of corn plants after foliar spray; format: in vivo; details: foliar spray at 500 μM, vs negative control
# Procedure: Compounds were tested for their effect on reducing plant water use as follows. The compounds were applied by foliar spray to 12 day old corn plants (variety NK OCTET) grown in controlled environment plant growth chambers. All compounds were applied using an emulsifiable concentrate (EC) formulation that was diluted to the desired concentrations with water containing 0.4% of the adjuvant rape seed methyl ester. Plant water use during the day was assessed by repeated weighing of the pots in which the plants were grown before and after application of the compounds at the indicated times (expressed in days after application (DAA)). The water use data before application was used to correct any differences in water use arising due to non-treatment effects (e.g. due to differences in plant size). The untransformed water use values were subjected to an analysis of covariance, fitting the effect of treatment and using the baseline water use 1 day before application as a covariate. Application of the chemicals (0 DAA) takes place approximately between 8 to 9:30 a.m. WU is measured within day time (chamber light is on 6:00 to 20:00) at these timepoints: 0 DAA AM (10:30-12:50) and 0 DAA PM (14:00-19:50), 1 DAA AM (7:30-12:50) and 1 DAA PM (14:00-19:50) and 2 DAA AM (7:30-12:50). The cumulative total WU (0-2 DAA) is calculated by summing the WU data mentioned above.
# PYR1-HAB1 = PYR1-HAB1 (Arabidopsis thaliana (Mouse-ear cress), UniProt O49686); assay: PP2C activity assay, PYR1-HAB1; format: biochemical; details: 100 nM PP2C, 200 nM PYR/PYL protein, 4-nitrophenyl phosphate substrate; read-out: IC50 of inhibition of PYR1-HAB1
# Source text: (§1) The protein HAB1, a type 2 protein phosphatase (PP2C), is inhibited by PYR/PYL proteins in dependence of abscisic acid or other receptor agonists. The potency of a receptor agonists correlates with the level of inhibition of the PP2C, and therefore the IC50 (PYR1-HAB1) can be used to compare the relative activity of different chemical analogues. Since inhibition of PP2C correlates to inhibition of seed-germination and increase in plant water-use efficiency, it serves as a powerful tool to quantify biological potential of a chemical acting as an analogue of abscisic acid.
# (§2) HAB1 and PYL proteins were expressed and purified as described in Park et al. ((2009) Science 324(5930):1068-1071), with minor modifications. To obtain GST-HAB1, the HAB1 cDNA was cloned into pGex-2T. Expression was conducted in BL21[DE3]pLysS host cells. Transformed cells were pre-cultured overnight, transferred to LB medium and cultured at 30° C. to culture A600 of ˜0.5.
# (§3) The culture was then cooled on ice and MnCl2 added to 4 mM and IPTG added to 0.3 mM. After 16 hours incubation at 15° C., cells were harvested and recombinant proteins were purified on glutathione agarose as described in Park et al. To obtain 6×His-PYL receptor fusion proteins, expression constructs previously described by Okamoto et al. 2013, (PNAS 110(29): 12132-12137) were used. ABA receptors were expressed and purified as described above.
# (§4) For the values shown in Table B5, PP2C activity assays using recombinant receptors and PP2Cs were carried out as follows: purified proteins were pre-incubated in 160 μl assay buffer containing 100 mM Tris-HCl-pH7.9, 100 mM NaCl, 3 μg bovine serum albumin, 0.1% 2-mercaptoethanol, 1 mM MnCl2 with ABA or agonists (compounds of the present invention) for 30 minutes at room temperature. Reactions were started by adding 40 μL of a reaction solution containing 25 mM 4-nitrophenyl phosphate in assay buffer after which absorbance measurements were immediately collected using a 405 nm on Wallac plate reader. Reactions contained 100 nM PP2C and 200 nM PYR/PYL proteins. […] For inferring IC50 values, calculations from receptor/PP2C assays containing different concentrations (ranging from 1 μM to 4 nM) were. The obtained dose response data was fit to a log (inhibitor) versus response-(variable slope) model using non-linear regression to infer the IC50s, using Graph Pad Prism 6.0.
# PYL2-HAB1 = PYL2-HAB1 (Arabidopsis thaliana (Mouse-ear cress), UniProt O80992); assay: PP2C activity assay, PYL2-HAB1; format: biochemical; details: 100 nM PP2C, 200 nM PYR/PYL protein, 4-nitrophenyl phosphate substrate; read-out: IC50 of inhibition of PYL2-HAB1
# Source text: as §1, §2, §3, §4
# [3] = test system: corn plants (variety NK OCTET); assay: Water use (WU) of corn plants after foliar spray; format: in vivo; details: foliar spray at 500 μM, vs negative control; remark: listed apart in the source
# Arabidopsis seeds = assay: Arabidopsis germination inhibition analysis; format: in vivo; details: assessed after 3 days at 22° C. in the dark
# Procedure: To analyse the effect of compounds on inhibition of germination, Arabidopsis seeds after-ripened for about 4 weeks were surface-sterilized with a solution containing 5% NaClO and 0.05% Tween-20 for 10 minutes, and rinsed with water four times. Sterilized seeds were suspended with 0.1% agar and sowed on 0.8% solidified agar medium containing ½ Murashige and Skoog (MS) salts (Sigma-Aldrich) in the presence of the relevant treatment, stored at 4° C. for 4 days, and then transferred to 22° C. under the dark conditions. Germination was assessed after 3 days.
# PYL2-HAB1, sequence (O80992 whole entry, looked up): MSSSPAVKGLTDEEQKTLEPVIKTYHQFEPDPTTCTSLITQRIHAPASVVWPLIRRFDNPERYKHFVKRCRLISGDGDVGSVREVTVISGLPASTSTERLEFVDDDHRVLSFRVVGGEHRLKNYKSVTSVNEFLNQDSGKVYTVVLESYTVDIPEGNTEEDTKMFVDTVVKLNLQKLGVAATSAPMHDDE
# PYL2-HAB1, sequence (Q9CAJ0 whole entry partner, looked up): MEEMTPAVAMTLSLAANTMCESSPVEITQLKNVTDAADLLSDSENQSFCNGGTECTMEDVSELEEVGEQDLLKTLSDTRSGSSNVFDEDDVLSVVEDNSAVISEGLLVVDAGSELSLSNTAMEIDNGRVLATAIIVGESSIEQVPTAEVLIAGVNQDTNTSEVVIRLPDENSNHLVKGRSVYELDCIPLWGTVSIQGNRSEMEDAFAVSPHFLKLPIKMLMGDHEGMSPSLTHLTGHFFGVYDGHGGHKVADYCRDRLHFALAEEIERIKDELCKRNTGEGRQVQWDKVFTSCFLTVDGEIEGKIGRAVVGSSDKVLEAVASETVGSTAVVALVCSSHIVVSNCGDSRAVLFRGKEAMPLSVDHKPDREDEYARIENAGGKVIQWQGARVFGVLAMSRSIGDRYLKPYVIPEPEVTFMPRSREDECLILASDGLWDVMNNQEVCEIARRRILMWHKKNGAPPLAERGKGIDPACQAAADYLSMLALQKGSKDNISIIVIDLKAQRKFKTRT
# PYR1-HAB1, sequence (O49686 whole entry, looked up): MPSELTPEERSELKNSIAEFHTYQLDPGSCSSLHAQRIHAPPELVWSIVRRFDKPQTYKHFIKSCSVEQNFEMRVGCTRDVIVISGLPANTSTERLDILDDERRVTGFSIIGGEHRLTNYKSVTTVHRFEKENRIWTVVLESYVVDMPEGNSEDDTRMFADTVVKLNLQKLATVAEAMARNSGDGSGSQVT
# PYR1-HAB1, sequence (Q9CAJ0 whole entry partner, looked up): as the sequence (Q9CAJ0 whole entry partner, looked up) above
Structure (SMILES),% WU 2 DAA PM [1] [%],Total % WU 0 to 2 DAA ([1]; cumulative) [%],Total % WU 0 to 2 DAA ([2]; cumulative) [%],% WU 0 DAA AM [2] [%],% WU 0 DAA PM [2] [%],% WU 1 DAA AM [2] [%],% WU 1 DAA PM [2] [%],% WU 2 DAA AM [2] [%],IC50 (PYR1-HAB1) [µM],IC50 (PYL2-HAB1) [µM],% WU 2 DAA PM [3] [%],% germination at 1 μM (Arabidopsis seeds) [%],% germination at 5 μM (Arabidopsis seeds) [%]
"CCN1C(=O)CC(C)c2cc(NS(=O)(=O)Cc3ccc(C4CC4)cc3)cc(F)c21 (stereo not drawn) [Compound 1.220, 1-(4-cyclopropylphenyl)-N-(1-ethyl-8-fluoro-4-methyl-2-oxo-3,4-dihydroquinolin-6-yl)methanesulfonamide]",−44.6,−50.5,−17.8,−32.6,−35.1,−18.2,−14.1,−8.7,0.071,0.016,−9,,
"CCCN1C(=O)CCc2cc(NS(=O)(=O)Cc3ccc(C)cc3)ccc21 [drawing 28, reference compound]",,,,,,,,,,,,46,0
CCCN1C(=O)CCc2cc(NS(=O)(=O)Cc3ccc(C4CC4)cc3)ccc21 [drawing 29],,,,,,,,,,,,42,0
